Measurements as given in patent US8877949B2, “Furo[3,2-g]chromene compounds and uses thereof” (Shenyang Pharmaceutical University, priority 2010, dated 2014).

Tests used:
uteri = assay: Uterotrophic/anti-uterotrophic assay in juvenile rats (4 days); type: in vivo, rat; details: immature female Sprague-Dawley rats, i.p., dose not stated, n = 2
Description: The estrogen and anti-estrogen properties of the compound can be tested in the uterotrophic assay (4 days) in juvenile rats. Immature rats (Sprague-Dawley rats) (female, 18 days old) were divided into 6 test groups. All these animals were i.p. injected with 10 μg of the compound, 100 μg of the compound per day, (100 μg of the compound and 1 μg 176 estradiol), so as to investigate anti-estrogens; and treated with 1 μg of 176 estradiol, wherein 50% DMSO/50% saline was used as injection media. These animals were sacrificed by CO2 asphyxiation on Day 4. Their uteri were extracted, and excessive fats and all liquid were removed. Then the wet weight of the uteri was measured. A part of one corner of the uterus was separated and analyzed histologically. The rest part was used to isolate whole RNA, so as to evaluate the expression of complement component 3 gene.

[1] = tested on: LDL cell-mediated oxidation; assay: Inhibition of LDL oxidation, antioxidant activity (TBARS); type: cell-based, Swine; details: Sus scrofa; compound 5 μM, 12.5 μg/mL LDL, 37° C., 4 hours; n = 2; read-out: Oxidation inhibition rate
Source text: Swine aortas were obtained from a slaughterhouse, washed, and then transferred into cold PBS. Epithelial cells were collected from the aortas. Particularly, in order to collect the epithelial cells, intercostal blood vessel of the aorta was knotted, and one end of the aorta was clamped with a forceps. Fresh 0.2% collagenase (Sigma Type I) which had been filtered for sterilization was placed into the blood vessel, and another end of the blood vessel was clamped with a forceps so as to form a closed system. The aortas were cultured at 37° C. for 15-20 min, then collagenase solution was collected and centrifuged for 5 min. The resultant precipitate was resuspended in 7 mL epithelial cell medium (i.e. a DMEM/Ham'S F12 medium without phenolsulfonphthalein but supplemented with carbon stripped FBS (5%)), then seeded in a 100 mm dish and cultured at 37° C., 5% CO2. Twenty minutes later, the cells were rinsed with PBS, and a fresh medium was added. The above process was repeated for 24 hours. After about one week, the cells were confluent. Usually, these epithelial cells were fed twice per week, and seeded with a ratio of 1:7 after the action of trypsin during confluence. In the case that the compound (5 μM) to be evaluated existed, 12.5 μg/mL LDL cell-mediated oxidation was carried out at 37° C. for 4 hours. The result was expressed as the percentage of oxidation inhibition, which was determined by analyzing free aldehyde by the TBARS (Thiobarbituric acid reactive substances) method.

[2] = tested on: Osteosarcoma Cells U2OS-EGFP-4A12G; assay: Effect on the proliferation of osteosarcoma cells U2OS-EGFP-4A12G (MTT); type: cell-based; details: n = 3
Description: Cells in the logarithmic growth phase were digested with trypsin, counted with trypan blue, and prepared into a cellular suspension with a density of 1×10^4 cells/mL. The suspension was seeded in a 96-well plate, 200 μL/well, about 2×10^3 cells/well, and pre-cultured for 24 h. […] A concentration of 0 mg/mL was used as a negative control group. After subsequent cultivatation for 0 h, 12 h, 24 h or 48 h, 20 μL MTT solution (5 mg/mL) was added to each well. The cultivation was terminated after another 4 h incubation. The supernatant in each well was sucked out carefully, and 150 μL of dimethyl sulfoxide (DMSO) was added to each well. The plate was shaken for 10 min, so that formazan was dissolved thoroughly. The absorption value (A value) of each well was measured using an enzyme linked immunosorbent detector, at a selected wavelength of 490 nm. The measurement was repeated for 5 times.

[3] = tested on: MCF-7 cells or BG-1 cells; assay: Effect on the proliferation of breast cancer cells (MCF-7 or BG-1 cells in nude mice); type: in vivo; details: Mus musculus; n = 2
Description: Using standard pharmacological experimental methods easily found in reference documents, the capabilities of the inventive compounds to treat and inhibit different types of malignant tumors or over-proliferation diseases can be evaluated.
Spayed athymic nu/nu (nude) mice were used. One day before the injection of tumor cells, a release-controlled pill containing 0.36-1.7 mg of β estradiol (60- or 90-day release) or a placebo was implanted into the animal. The pill was introduced into the endo-sculpture zone subcutaneously using a 10-scaled precise rotor. Next, 1×10^7 MCF-7 cells or 1×10^7 BG-1 cells were injected into breast tissues of the mice subcutaneously. The cells were mixed with matrigel with a same volume, and the latter was a liquid preparation of basilar membrane substrate, so as to facilitate tumor construction. One day after the implantation of the tumor cells (i.e. an inhibition protocol), or after the tumor had reached a certain volume (i.e. a treatment protocol), the tested compounds could be evaluated through administration. The saline containing the compound in a 1% Tween-80 vehicle was administered intraperitoneally or orally every day. The volumes of the tumors were evaluated every 3 or 7 days.

[4] = tested on: Ovarian Cancer Cells SKOV3; assay: Effect on the proliferation of ovarian cancer cells SKOV3 (MTT); type: cell-based; details: Homo sapiens, SK-OV-3, n = 3
Description: Cells in the logarithmic growth phase were digested with trypsin, added to a 96-well plate, in a density of 6×10^3 cells/well, and cultured in a 37° C., 5% CO2 incubator. The next day, the plated was transferred to and kept in a 4° C. incubator for 1 h after the adherence of most cells, so as to achieve synchronized growth of the cells. The supernatant was sucked out, and a RPMI 1640 medium containing 10% fetal calf serum (FCS) was added, 200 μL/well. The cells were grouped according to the design of the experiment. The injectable solution of the compound prepared with sterile physiological saline was added to the 96 wells, 200 μL/well, so that the concentrate of the medicament in each well were 1 mg/mL, 2 mg/mL and 5 mg/mL, respectively. A concentration of 0 mg/mL was used as a negative control group. After subsequent cultivation for 24, 48, or 72 h, 20 μL MTT solution (with a concentration of 5 mg/mL) was added to each well, respectively. The plate was shaken gently, returned to the incubator and incubated for another 4 h. Then the supernatant was sucked out completely, and 200 μL of dimethyl sulfoxide was added to each well. The plate was shaken for 5-10 min on a shaker. The absorption (A=580) of each well at a wavelength of 580 nm was measured using a microplate reader. The A=580 value was proportional to the number of live cells.

CCN(CC)CCOc1ccc(C(=O)c2oc3cc4c(cc3c2-c2ccc(O)cc2)CCCO4)cc1 [Example 56, 2-[4-(diethylaminoethoxy)benzoyl]-3-(4-hydroxyphenyl)-6,7-dihydrogen-5H-furo[3,2-g]chromene]
percentage of weight gain of uteri (uteri): 12.2%
inhibition at 5 µM [1]: 5.1%
IC50 [2]: 14.9 µM
IC50 [3]: 22.1 µM
IC50 [4]: 17.9 µM

O=C(c1ccc(OCC(=O)N2CCOCC2)cc1)c1oc2cc3c(cc2c1-c1ccc(O)cc1)CCCO3 [2-[4-(morpholine-2-oxo-ethoxy)benzoyl]-3-(4-hydroxyphenyl)-6,7-dihydrogen-5H-furo[3,2-g]chromene]
percentage of weight gain of uteri (uteri): 9.8%
inhibition at 5 µM [1]: 12.4%
IC50 [3]: 46.7 µM

O=C(c1ccc(OCC(=O)N2CCCCC2)cc1)c1oc2cc3c(cc2c1-c1ccc(O)cc1)CCCO3 [Example 60, 2-[4-(piperidine-2-oxo-ethoxy)benzoyl]-3-(4-hydroxyphenyl)-6,7-dihydrogen-5H-furo[3,2-g]chromene]
percentage of weight gain of uteri (uteri): 8.7%
inhibition at 5 µM [1]: 22.6%
IC50 [3]: 11.5 µM

CCN(CC)C(=O)COc1ccc(C(=O)c2oc3cc4c(cc3c2-c2ccc(O)cc2)CCCO4)cc1 [Example 62, 2-[4-(diethylamino-2-oxo-ethoxy)benzoyl]-3-(4-hydroxyphenyl)-6,7-dihydrogen-5H-furo[3,2-g]chromene]
percentage of weight gain of uteri (uteri): 38.8%
inhibition at 5 µM [1]: 36.8%
IC50 [3]: 25.2 µM

CN(C)C(=O)COc1ccc(C(=O)c2oc3cc4c(cc3c2-c2ccc(O)cc2)CCCO4)cc1 [Example 64, 2-[4-(dimethylamino-2-oxo-ethoxy)benzoyl]-3-(4-hydroxyphenyl)-6,7-dihydrogen-5H-furo[3,2-g]chromene]
percentage of weight gain of uteri (uteri): 26.2%
inhibition at 5 µM [1]: 44.9%
IC50 [3]: 5.6 µM

CN(C)CCOc1ccc(C(=O)c2oc3cc4c(cc3c2-c2ccc(O)cc2)CCCO4)cc1 [Example 58, 2-[4-(dimethylaminoethoxy)benzoyl]-3-(4-hydroxyphenyl)-6,7-dihydrogen-5H-furo[3,2-g]chromene]
percentage of weight gain of uteri (uteri): 0.6%
inhibition at 5 µM [1]: 6.8%
IC50 [3]: 4.6 µM
